# Measurements from US7091202B2, “4-arylspirocycloalkyl-2-aminopyrimidine carboxamide KCNQ potassium channel modulators” (Bristol-Myers Squibb Company, priority 2004, dated 2006).
# Biological target: T1, hQ23 (HEK-293 cell line stably transfected with one of the members of the KCNQ family) (Homo sapiens, UniProt O43525+O43526)
# T1 construct: expressed in transfected cells; host or cells: HEK-293, stably transfected
# Assay: Thallium flux assay for KCNQ channel blockers (FLIPR, BTC dye)
# Format: cell-based
# Conditions: hQ23 cells, thallium flux
# Procedure, shortened: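 HEK-293 cells stably expressing a KCNQ member, loaded with BTC-AM (2 μM) in chloride-free buffer, pH 7.3; compounds added at 1% DMSO, then Tl2SO4 stimulus on FLIPR (488/540 nm, 60 s). Minimal active concentration set at ≥4 SD above negative control; IC50 from 10-point 1:3 series, single-site logistic fit versus the positive-control blocker.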
# T1 sequence (O43526 whole entry): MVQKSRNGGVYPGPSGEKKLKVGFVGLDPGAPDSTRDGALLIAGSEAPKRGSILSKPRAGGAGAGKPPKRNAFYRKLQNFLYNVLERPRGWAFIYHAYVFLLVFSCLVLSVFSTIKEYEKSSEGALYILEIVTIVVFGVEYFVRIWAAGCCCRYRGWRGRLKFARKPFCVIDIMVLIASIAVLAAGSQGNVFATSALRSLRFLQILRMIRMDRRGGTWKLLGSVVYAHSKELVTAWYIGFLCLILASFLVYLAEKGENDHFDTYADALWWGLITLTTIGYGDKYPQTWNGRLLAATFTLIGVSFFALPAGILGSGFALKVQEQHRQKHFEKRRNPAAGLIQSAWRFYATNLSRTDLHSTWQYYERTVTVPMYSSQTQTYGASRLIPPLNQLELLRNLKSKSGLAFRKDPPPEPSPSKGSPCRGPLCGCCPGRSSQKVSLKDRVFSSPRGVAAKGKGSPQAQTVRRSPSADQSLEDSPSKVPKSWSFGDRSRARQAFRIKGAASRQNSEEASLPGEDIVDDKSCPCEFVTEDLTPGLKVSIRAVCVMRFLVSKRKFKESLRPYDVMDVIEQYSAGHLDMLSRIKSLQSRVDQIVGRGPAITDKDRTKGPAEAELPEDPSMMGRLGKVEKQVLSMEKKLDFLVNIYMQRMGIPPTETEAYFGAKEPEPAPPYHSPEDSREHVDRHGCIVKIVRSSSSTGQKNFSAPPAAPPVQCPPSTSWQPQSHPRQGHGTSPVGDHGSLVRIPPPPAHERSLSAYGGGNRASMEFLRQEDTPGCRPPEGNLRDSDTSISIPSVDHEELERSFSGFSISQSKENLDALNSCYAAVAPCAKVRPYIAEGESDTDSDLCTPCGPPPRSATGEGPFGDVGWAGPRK
# T1 sequence (O43525 whole entry): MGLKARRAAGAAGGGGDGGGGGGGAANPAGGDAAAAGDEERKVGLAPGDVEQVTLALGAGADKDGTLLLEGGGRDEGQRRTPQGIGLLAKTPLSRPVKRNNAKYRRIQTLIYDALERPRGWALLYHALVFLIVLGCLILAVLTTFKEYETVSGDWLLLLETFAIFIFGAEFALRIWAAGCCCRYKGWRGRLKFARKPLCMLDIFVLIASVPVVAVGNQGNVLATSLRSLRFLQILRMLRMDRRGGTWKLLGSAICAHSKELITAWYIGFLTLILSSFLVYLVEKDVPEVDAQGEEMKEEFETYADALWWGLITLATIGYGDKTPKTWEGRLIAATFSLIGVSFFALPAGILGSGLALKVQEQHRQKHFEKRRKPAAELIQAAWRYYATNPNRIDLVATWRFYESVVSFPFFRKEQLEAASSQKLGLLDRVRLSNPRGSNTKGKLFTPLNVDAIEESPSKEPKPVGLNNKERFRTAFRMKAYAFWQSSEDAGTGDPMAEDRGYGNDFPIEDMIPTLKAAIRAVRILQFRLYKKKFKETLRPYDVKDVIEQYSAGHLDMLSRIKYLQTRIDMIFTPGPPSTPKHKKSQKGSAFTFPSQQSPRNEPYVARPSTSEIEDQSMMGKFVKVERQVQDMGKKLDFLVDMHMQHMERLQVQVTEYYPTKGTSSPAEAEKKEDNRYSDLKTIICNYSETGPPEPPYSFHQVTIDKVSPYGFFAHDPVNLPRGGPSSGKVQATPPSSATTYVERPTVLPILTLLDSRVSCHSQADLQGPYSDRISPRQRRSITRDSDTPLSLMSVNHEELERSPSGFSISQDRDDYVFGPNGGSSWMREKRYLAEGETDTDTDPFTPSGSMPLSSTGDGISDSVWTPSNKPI
row,Compound,EC50 [nM]
1,"CC(NC(=O)c1cnc(N2CCCC2)nc1C1(c2ccccc2)CCCC1)c1ccc(F)cc1 (centres unmarked) [Example 132, 5-pyrimidinecarboxamide, N-[1-(4-fluorophenyl)ethyl]-4-(1-phenylcyclopentyl)-2-(1-pyrrolidinyl)-]",195
2,"CC(NC(=O)c1cnc(N2CCN(C)CC2)nc1C1(c2ccccc2)CCCC1)c1ccc(F)cc1 (centres unmarked) [Example 133, 5-pyrimidinecarboxamide, N-[1-(4-fluorophenyl)ethyl]-2-(4-methyl-1-piperazinyl)-4-(1-phenylcyclopentyl)-]",442
3,"CCC(C)Nc1ncc(C(=O)NC(C)c2ccc(F)cc2)c(C2(c3ccccc3)CCCC2)n1 (centres unmarked) [Example 135, 5-pyrimidinecarboxamide, N-[1-(4-fluorophenyl)ethyl]-2-[(1-methylpropyl)amino]-4-(1-phenylcyclopentyl)-]",29
4,"CC(NC(=O)c1cnc(NC2CCCC2)nc1C1(c2ccccc2)CCCC1)c1ccc(F)cc1 (centres unmarked) [Example 136, 5-pyrimidinecarboxamide, 2-(cyclopentylamino)-N-[1-(4-fluorophenyl)ethyl]-4-(1-phenylcyclopentyl)-]",413
5,"CN(Cc1ccccc1)C(=O)c1cnc(NC2CCCC2)nc1C1(c2ccc(Cl)cc2)CCCC1 [Example 141, 5-pyrimidinecarboxamide, 4-[1-(4-chlorophenyl)cyclopentyl]-2-(cyclopentylamino)-N-methyl-N-(phenylmethyl)-]",183
6,"O=C(c1cnc(NC2CCCC2)nc1C1(c2ccc(Cl)cc2)CCCC1)N1CCc2ccccc2C1 [Example 142, isoquinoline, 2-[[4-[1-(4-chlorophenyl)cyclopentyl]-2-(cyclopentylamino)-5-pyrimidinyl]carbonyl]-1,2,3,4-tetrahydro-]",535
7,"CCC(C)Nc1ncc(C(=O)N(CC)C2CCCCC2)c(C2(c3ccc(Cl)cc3)CCCC2)n1 (centres unmarked) [Example 143, 5-pyrimidinecarboxamide, 4-[1-(4-chlorophenyl)cyclopentyl]-N-cyclohexyl-N-ethyl-2-[(1-methylpropyl)amino]-]",880
8,"CN(CCc1ccccc1)C(=O)c1cnc(NC2CC2)nc1C1(c2ccc(Cl)cc2)CCCC1 [Example 145, 5-pyrimidinecarboxamide, 4-[1-(4-chlorophenyl)cyclopentyl]-2-(cyclopropylamino)-N-methyl-N-(2-phenylethyl)-]",895
9,"CC1CCC(Nc2ncc(C(=O)N(C)CCc3ccccc3)c(C3(c4ccc(Cl)cc4)CCCC3)n2)CC1 (centres unmarked) [Example 146, 5-pyrimidinecarboxamide, 4-[1-(4-chlorophenyl)cyclopentyl]-N-methyl-2-[(4-methylcyclohexyl)amino]-N-(2-phenylethyl)-]",664
10,"CN(CCc1ccccc1)C(=O)c1cnc(N2CCCC2)nc1C1(c2ccc(Cl)cc2)CCCC1 [Example 147, 5-pyrimidinecarboxamide, 4-[1-(4-chlorophenyl)cyclopentyl]-N-methyl-N-(2-phenylethyl)-2-(1-pyrrolidinyl)-]",169
11,"CN(CCc1ccccc1)C(=O)c1cnc(NC2CCCC2)nc1C1(c2ccc(Cl)cc2)CCCC1 [Example 148, 5-pyrimidinecarboxamide, 4-[1-(4-chlorophenyl)cyclopentyl]-2-(cyclopentylamino)-N-methyl-N-(2-phenylethyl)-]",597
12,"O=C(NCc1ccc2c(c1)OCO2)c1cnc(NC2CC2)nc1C1(c2ccc(Cl)cc2)CCCC1 [Example 150, 5-pyrimidinecarboxamide, N-(1,3-benzodioxol-5-ylmethyl)-4-[1-(4-chlorophenyl)cyclopentyl]-2-(cyclopropylamino)-]",717
13,"CC1CCC(Nc2ncc(C(=O)NCc3ccc4c(c3)OCO4)c(C3(c4ccc(Cl)cc4)CCCC3)n2)CC1 (centres unmarked) [Example 151, 5-pyrimidinecarboxamide, N-(1,3-benzodioxol-5-ylmethyl)-4-[1-(4-chlorophenyl)cyclopentyl]-2-[(4-methylcyclohexyl)amino]-]",119
14,"CC1CCCN(c2ncc(C(=O)NCc3ccc4c(c3)OCO4)c(C3(c4ccc(Cl)cc4)CCCC3)n2)C1 (centres unmarked) [Example 153, 5-pyrimidinecarboxamide, N-(1,3-benzodioxol-5-ylmethyl)-4-[1-(4-chlorophenyl)cyclopentyl]-2-(3-methyl-1-piperidinyl)-]",10
15,"CC1CCN(c2ncc(C(=O)NCc3ccc4c(c3)OCO4)c(C3(c4ccc(Cl)cc4)CCCC3)n2)CC1 [Example 154, 5-pyrimidinecarboxamide, N-(1,3-benzodioxol-5-ylmethyl)-4-[1-(4-chlorophenyl)cyclopentyl]-2-(4-methyl-1-piperidinyl)-]",10
16,"CCC(C)Nc1ncc(C(=O)NCc2ccc3c(c2)OCO3)c(C2(c3ccc(Cl)cc3)CCCC2)n1 (centres unmarked) [Example 155, 5-pyrimidinecarboxamide, N-(1,3-benzodioxol-5-ylmethyl)-4-[1-(4-chlorophenyl)cyclopentyl]-2-[(1-methylpropyl)amino]-]",337
17,"CC(NC(=O)c1cnc(N2CCN(C)CC2)nc1C1(c2ccc(Cl)cc2)CCCC1)c1cccc2ccccc12 (centres unmarked) [Example 159, 5-pyrimidinecarboxamide, 4-[1-(4-chlorophenyl)cyclopentyl]-2-(4-methyl-1-piperazinyl)-N-[1-(1-naphthalenyl)ethyl]-]",643
18,"CC1CCCN(c2ncc(C(=O)NC(C)c3cccc4ccccc34)c(C3(c4ccc(Cl)cc4)CCCC3)n2)C1 (centres unmarked) [Example 160, 5-pyrimidinecarboxamide, 4-[1-(4-chlorophenyl)cyclopentyl]-2-(3-methyl-1-piperidinyl)-N-[1-(1-naphthalenyl)ethyl]-]",30
19,"CCC(C)Nc1ncc(C(=O)NC(C)c2cccc3ccccc23)c(C2(c3ccc(Cl)cc3)CCCC2)n1 (centres unmarked) [Example 162, 5-pyrimidinecarboxamide, 4-[1-(4-chlorophenyl)cyclopentyl]-2-[(1-methylpropyl)amino]-N-[1-(1-naphthalenyl)ethyl]-]",113
20,"CC(NC(=O)c1cnc(NCCN(C)C)nc1C1(c2ccc(Cl)cc2)CCCC1)c1cccc2ccccc12 (centres unmarked) [Example 163, 5-pyrimidinecarboxamide, 4-[1-(4-chlorophenyl)cyclopentyl]-2-[[2-(dimethylamino)ethyl]amino]-N-[1-(1-naphthalenyl)ethyl]-]",705

# Further compounds by falling EC50, results first:
row,EC50 [nM],Compound
1,964,"CC1CCC(Nc2ncc(C(=O)NCc3ccc(C(F)(F)F)cc3)c(C3(c4ccccc4)CCCC3)n2)CC1 (centres unmarked) [Example 137, 5-pyrimidinecarboxamide, 2-[(4-methylcyclohexyl)amino]-4-(1-phenylcyclopentyl)-N-[[4-(trifluoromethyl)phenyl]methyl]-]"
2,884,"CC1CCCN(C(=O)c2cnc(NC3CC3)nc2C2(c3ccc(Cl)cc3)CCCC2)C1 (centres unmarked) [Example 144, piperidine, 1-[[4-[1-(4-chlorophenyl)cyclopentyl]-2-(cyclopropylamino)-5-pyrimidinyl]carbonyl]-3-methyl-]"
3,525,"CCN(Cc1ccccc1)C(=O)c1cnc(NC2CCCC2)nc1C1(c2ccc(Cl)cc2)CCCC1 [Example 149, 5-pyrimidinecarboxamide, 4-[1-(4-chlorophenyl)cyclopentyl]-2-(cyclopentylamino)-N-ethyl-N-(phenylmethyl)-]"
4,246,"CC1CCN(c2ncc(C(=O)N(C)Cc3ccccc3)c(C3(c4ccc(Cl)cc4)CCCC3)n2)CC1 [Example 140, 5-pyrimidinecarboxamide, 4-[1-(4-chlorophenyl)cyclopentyl]-N-methyl-2-(4-methyl-1-piperidinyl)-N-(phenylmethyl)-]"
5,195,"CC(NC(=O)c1cnc(NC2CC2)nc1C1(c2ccc(Cl)cc2)CCCC1)c1cccc2ccccc12 (centres unmarked) [Example 157, 5-pyrimidinecarboxamide, 4-[1-(4-chlorophenyl)cyclopentyl]-2-(cyclopropylamino)-N-[1-(1-naphthalenyl)ethyl]-]"
6,107,"O=C(NCc1ccc2c(c1)OCO2)c1cnc(N2CCCC2)nc1C1(c2ccc(Cl)cc2)CCCC1 [Example 152, 5-pyrimidinecarboxamide, N-(1,3-benzodioxol-5-ylmethyl)-4-[1-(4-chlorophenyl)cyclopentyl]-2-(1-pyrrolidinyl)-]"
7,98,"CC1CCN(c2ncc(C(=O)NC(C)c3ccc(F)cc3)c(C3(c4ccccc4)CCCC3)n2)CC1 (centres unmarked) [Example 134, 5-pyrimidinecarboxamide, N-[1-(4-fluorophenyl)ethyl]-2-(4-methyl-1-piperidinyl)-4-(1-phenylcyclopentyl)-]"
8,70,"CN1CCN(c2ncc(C(=O)N(C)Cc3ccccc3)c(C3(c4ccc(Cl)cc4)CCCC3)n2)CC1 [Example 139, 5-pyrimidinecarboxamide, 4-[1-(4-chlorophenyl)cyclopentyl]-N-methyl-2-(4-methyl-1-piperazinyl)-N-(phenylmethyl)-]"
9,70,"O=C(NCc1ccc2c(c1)OCO2)c1cnc(NC2CCCC2)nc1C1(c2ccc(Cl)cc2)CCCC1 [Example 156, 5-pyrimidinecarboxamide, N-(1,3-benzodioxol-5-ylmethyl)-4-[1-(4-chlorophenyl)cyclopentyl]-2-(cyclopentylamino)-]"
10,40,"CC(NC(=O)c1cnc(N2CCCC2)nc1C1(c2ccc(Cl)cc2)CCCC1)c1cccc2ccccc12 (centres unmarked) [Example 158, 5-pyrimidinecarboxamide, 4-[1-(4-chlorophenyl)cyclopentyl]-N-[1-(1-naphthalenyl)ethyl]-2-(1-pyrrolidinyl)-]"
11,10,"CC1CCN(c2ncc(C(=O)NC(C)c3cccc4ccccc34)c(C3(c4ccc(Cl)cc4)CCCC3)n2)CC1 (centres unmarked) [Example 161, 5-pyrimidinecarboxamide, 4-[1-(4-chlorophenyl)cyclopentyl]-2-(4-methyl-1-piperidinyl)-N-[1-(1-naphthalenyl)ethyl]-]"
12,10,"CC(NC(=O)c1cnc(NC2CCCC2)nc1C1(c2ccc(Cl)cc2)CCCC1)c1cccc2ccccc12 (centres unmarked) [Example 164, 5-pyrimidinecarboxamide, 4-[1-(4-chlorophenyl)cyclopentyl]-2-(cyclopentylamino)-N-[1-(1-naphthalenyl)ethyl]-]"
